Legend:
[1] = system: DSS-colitis; test: DSS-colitis (acute colitis) mouse model: weight loss, DAI, symptoms, crypt score; assay type: in vivo, C57BL/6 mice
Source text: Animals. Pathogen-free male C57BL/6 mice, 4-6 weeks of age (Taconic; C57BL/6×129 svj strain) were used in this example. Mice were kept for one week at 4 mice/cage and fed normal laboratory chow and drinking water ad libitum prior to the experiments. All mice weighed between 22.5 g and 27.7 g at the beginning of the trial. The animal experimentation protocol was reviewed and approved by the Animal Care and Use Committees of the Beth Israel Deaconess Medical Center.
Induction of Colitis. Colitis was induced by feeding mice 5% (wt/v) dextran sodium sulfate (DSS) (MW 40,000; ICN Biomedicals Inc., OH), dissolved in distilled water, for a period of 7 days. The resulting condition was termed “DSS-colitis.” Control animals were fed distilled water ad libitum. The mortality rate in the control group and the CO-treated group was 10% (2/20) and 14% (2/14), respectively. These animals were excluded from the statistical analysis. In the other groups, no mortality occurred during 7 days of 5% DSS treatment.
Experimental Reagents and Treatment Protocol. Cobalt protoporphyrin (CoPPIX), zinc protoporphyrin (ZnPPIX, Porphyrin Products, Logan, Utah) and biliverdin dihydrochloride (ICN Biomedicals Inc., OH) were dissolved in a small amount 0.2 M NaOH, subsequently adjusted to a pH of 7.4 with 1 M HCl, and diluted in 0.9% NaCl. The stock solutions (CoPPIX and ZnPPIX=1 mg/ml, biliverdin=10 mM) were aliquoted and kept at −70° C. until used. Light exposure was limited as much as possible. CoPPIX (5 mg/kg), ZnPPIX (20 mg/kg) and biliverdin (50 μmol/kg) were administered to the mice intraperitoneally (i.p.) 24 hours before induction of DSS-colitis and daily thereafter. Desferoxamine (DFO) was prepared in imidazole buffer (50 mM imidazole, 220 mM NaCl, pH 7.4). DFO was injected subcutaneously (s.c.) twice daily (125 mg/kg) or infused i.p. (130 mg/kg/day; pumping rate 0.5 μl/hour for 8 days) by miniosmotic Alzet™ pumps (Alza Corporation, Palo Alto, Calif.) (Postma et al., Exp. Parasitol. 89(3):323-30 1998). The pumps were installed i.p. 24 hours before induction of colitis. When animals were sacrificed at day 7 of DSS treatment, the pumps were removed and evaluated to determine if DFO application had taken place.
CO gas was administrated exogenously by putting animals in a CO exposure chamber (Otterbein et al., Nat. Med. 6(4):422-8, 2000). Briefly, CO at a concentration of 1% (10,000 parts per million (ppm)) in compressed air was mixed with balanced air (21% oxygen) in a stainless steel mixing cylinder before entering the exposure chamber. CO concentrations were controlled by varying the flow rates of CO in a mixing cylinder before delivery to the chamber. Because the flow rate is primarily determined by the O2 flow, only the CO flow was changed to deliver the final concentration to the exposure chamber. A CO analyzer (Interscan Corporation, Chatsworth, Calif.) was used to measure CO levels continuously in the chamber. Mice were placed in the chamber 24 hours before the induction of the colitis and were kept in the exposure chamber during the whole period of the experiment (total of 8 days). […] Animals were removed daily from the chamber to assess weight and stool.
Evaluation of Symptoms of Colitis. All animals were evaluated clinically on a daily basis. The evaluation of each animal included a measurement of weight, hemoccult positivity and examination of stool for the presence of gross blood and stool consistency. The disease activity index (DAI) was calculated by scoring percent weight loss, intestinal bleeding (no blood; occult blood=hemoccult+; gross blood) and stool consistency (normal stool=well-formed pellets; loose stool=pasty and semiformed stools; diarrhea=liquid stool that stuck to the anus) (Table 1).
The animals were sacrificed, and the whole colon from the colo-cecal junction to the anal verge was removed and gently cleaned of stool. […]

[2] = system: IL-6; test: Real time RT-PCR of graft muscularis after SITx, IL-6; assay type: in vivo, LEW rats; conditions: figure legend 23A-23D, graft muscularis 4 hours after transplantation
Procedure: Small Intestinal Transplantation. Orthotopic small intestinal transplantation (SITx) was performed in syngeneic Lewis rats. SITx with caval drainage was performed using a previously described procedure (Murase et al., in Handbook of Animal Models in Transplantation Research, Cramer et al., Eds. CRC Press, Boca Raton, Fla., pp. 203-213 (1994)). […] The graft was perfused via the aortic segment with 5 ml chilled Ringer's lactate solution, and the intestinal lumen was irrigated with 20 ml of cold saline solution containing 0.5% neomycin-sulfate (Sigma, St. Louis, Mo.). End-to-side anastomoses between the graft aorta and the recipient infrarenal aorta, and between the graft portal vein and recipient vena cava, were performed with 10-0 Novafil™ suture. The cold ischemic time was 1 hour. The entire recipient intestine was removed and the enteric continuity was restored by proximal and distal end-to-end intestinal anastomoses. Recipient animals were given 20 mg/day prophylactic cefamandole nafate for 3 postoperative days. Transplanted recipients were given water 3 hours after surgery, and were fed 24 hours after surgery.
(§1) SYBR green real time RT-PCR. The effects of administration of biliverdin on transplant-induced pro-inflammatory and anti-inflammatory gene expression were assessed in muscularis extracts by RT-PCR Biliverdin ([…], i.p.) was administered to both the donor and recipient three hours preoperatively. The muscularis externae was collected from normal intestine and transplanted grafts 4 hours postoperatively and snap frozen in liquid nitrogen. […] Equal aliquots (5 μg) of total RNA from each sample were quantified by spectrophotometry (wavelength […]) and aliquoted at a concentration of 40 ng/μl. Peak mRNA expression was quantified in duplicate by SYBR Green two-step, real-time RT-PCR. […] Real-time PCR data were plotted as the ΔRn fluorescence signal versus the cycle number. […] Quantification of mRNA expression was normalized to GAPDH and calculated relative to control using the comparative CT method (Schmittgen et al., J. Biochem. Biophys. Methods 46(1-2):69-8, 2000). […]

[3] = system: IL-1β; test: Real time RT-PCR of graft muscularis after SITx, IL-1β; assay type: in vivo, LEW rats; conditions: figure legend 23A-23D, graft muscularis 4 hours after transplantation
Procedure: Small Intestinal Transplantation. Orthotopic small intestinal transplantation (SITx) was performed in syngeneic Lewis rats. SITx with caval drainage was performed using a previously described procedure (Murase et al., in Handbook of Animal Models in Transplantation Research, Cramer et al., Eds. CRC Press, Boca Raton, Fla., pp. 203-213 (1994)). […] The graft was perfused via the aortic segment with 5 ml chilled Ringer's lactate solution, and the intestinal lumen was irrigated with 20 ml of cold saline solution containing 0.5% neomycin-sulfate (Sigma, St. Louis, Mo.). […]
as §1, with “preoperatively.” for “preoperatively. The muscularis externae was collected from normal intestine and transplanted grafts 4 hours postoperatively and snap frozen in liquid nitrogen.”

In the case of `[C-]#[O+]` [CO, carbon monoxide], the mortality rate ([1]; 7 days of 5% DSS, CO exposure chamber 250-400 ppm) is reported as 14%, the “effect on DSS-colitis (weight loss, DAI)” value ([1]; continuous exposure to 200-400 ppm CO, compared to the control) is reported as “did not have an effect” and the “mean expression of IL-6 mRNA” value [2] is reported as “significantly reduced”. The “mean expression of IL-1b mRNA” value [3] was “significantly reduced”.

Source: patent publication US8097585B2, “Methods of treating inflammation by administration of heme oxygenase-1 and products of heme degradation” (priority 2002, dated 2012)
